Test results as given in ChEMBL document CHEMBL3351286, “Strategies to inhibit tumor associated integrin receptors: rationale for dual and multi-antagonists” (J Med Chem, 2014).

Experiments:
[1] = target: T1, Integrin alpha-V/beta-1 (Homo sapiens, UniProt P05556+P06756); assay: Antagonist activity at alphavbeta1 integrin receptor in HEK293 cells after 4 hrs using p-nitrophenyl phosphate by colorimetry; format: cell-based
[2] = target: T2, Integrin alpha-5/beta-1 (Homo sapiens, UniProt P05556+P08648); assay: Antagonist activity at alpha5beta1 integrin receptor in K562 cells after 4 hrs using p-nitrophenyl phosphate by colorimetry; format: cell-based
[3] = target: Integrin alpha-IIb/beta-3 (Homo sapiens, UniProt P05106+P08514); assay: Antagonist activity at alpha2bbeta3 integrin receptor (unknown origin) by cell-free ELISA; format: protein-complex assay
[4] = target: Integrin alpha-V/beta-6 (Homo sapiens, UniProt P06756+P18564); assay: Antagonist activity at alphavbeta6 integrin receptor in human HT29 cells after 4 hrs using p-nitrophenyl phosphate by colorimetry; format: cell-based, HT-29
[5] = target: Integrin alpha-V/beta-8 (Homo sapiens, UniProt P06756+P26012); assay: Antagonist activity at human recombinant alphavbeta8 integrin receptor expressed in HEK293 cells after 4 hrs using p-nitrophenyl phosphate by colorimetry; format: cell-based
[6] = target: Integrin alpha-V/beta-5 (Homo sapiens) [+]; assay: Antagonist activity at alphavbeta5 integrin receptor in HEK293 cells after 4 hrs using p-nitrophenyl phosphate by colorimetry
[7] = target: T3, Integrin alpha-V/beta-3 (Homo sapiens, UniProt P05106+P06756); assay: Antagonist activity at alphavbeta3 integrin receptor (unknown origin) by cell-based ELISA
[8] = target: T4, Integrin alpha-V/beta-5 (Homo sapiens, UniProt P06756+P18084); assay: Antagonist activity at alphavbeta5 integrin receptor (unknown origin) by cell-based ELISA
[9] = target: T2, Integrin alpha-5/beta-1; assay: Antagonist activity at alpha5beta1 integrin receptor (unknown origin) by cell-based ELISA
[10] = target: T5, Integrin alpha-IIb/beta-3 (Mus musculus, UniProt O54890+Q9QUM0); assay: Antagonist activity at mouse endothelial alpha2bbeta3 integrin receptor by cell adhesion assay; format: protein-complex assay
T5 sequence (Q9QUM0 whole entry): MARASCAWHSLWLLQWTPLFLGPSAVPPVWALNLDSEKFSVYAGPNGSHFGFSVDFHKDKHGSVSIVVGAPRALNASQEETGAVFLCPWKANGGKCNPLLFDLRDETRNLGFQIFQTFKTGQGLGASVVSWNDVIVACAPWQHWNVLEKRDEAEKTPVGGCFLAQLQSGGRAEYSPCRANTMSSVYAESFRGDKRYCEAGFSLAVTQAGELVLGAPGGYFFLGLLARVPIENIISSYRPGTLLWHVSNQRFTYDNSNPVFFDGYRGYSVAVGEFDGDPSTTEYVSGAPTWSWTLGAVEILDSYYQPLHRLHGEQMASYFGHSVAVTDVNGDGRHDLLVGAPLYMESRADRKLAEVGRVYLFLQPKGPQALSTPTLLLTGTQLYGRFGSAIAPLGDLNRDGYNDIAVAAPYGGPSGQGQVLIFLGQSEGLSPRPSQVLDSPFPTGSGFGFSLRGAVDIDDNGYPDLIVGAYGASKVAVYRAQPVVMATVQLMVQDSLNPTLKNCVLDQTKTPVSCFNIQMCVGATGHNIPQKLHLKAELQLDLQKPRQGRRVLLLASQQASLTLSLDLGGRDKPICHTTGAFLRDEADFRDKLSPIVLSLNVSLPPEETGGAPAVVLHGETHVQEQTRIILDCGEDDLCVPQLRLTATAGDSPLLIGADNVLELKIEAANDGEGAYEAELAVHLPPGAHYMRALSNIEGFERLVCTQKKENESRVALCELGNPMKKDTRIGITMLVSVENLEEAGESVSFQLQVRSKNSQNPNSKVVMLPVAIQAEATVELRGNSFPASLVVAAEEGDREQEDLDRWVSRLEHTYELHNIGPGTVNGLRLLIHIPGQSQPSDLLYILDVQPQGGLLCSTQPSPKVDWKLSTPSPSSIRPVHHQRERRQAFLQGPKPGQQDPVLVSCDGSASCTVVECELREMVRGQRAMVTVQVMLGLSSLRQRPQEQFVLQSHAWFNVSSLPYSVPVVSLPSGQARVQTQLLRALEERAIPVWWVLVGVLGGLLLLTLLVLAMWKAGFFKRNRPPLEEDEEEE
T5 sequence (O54890 whole entry): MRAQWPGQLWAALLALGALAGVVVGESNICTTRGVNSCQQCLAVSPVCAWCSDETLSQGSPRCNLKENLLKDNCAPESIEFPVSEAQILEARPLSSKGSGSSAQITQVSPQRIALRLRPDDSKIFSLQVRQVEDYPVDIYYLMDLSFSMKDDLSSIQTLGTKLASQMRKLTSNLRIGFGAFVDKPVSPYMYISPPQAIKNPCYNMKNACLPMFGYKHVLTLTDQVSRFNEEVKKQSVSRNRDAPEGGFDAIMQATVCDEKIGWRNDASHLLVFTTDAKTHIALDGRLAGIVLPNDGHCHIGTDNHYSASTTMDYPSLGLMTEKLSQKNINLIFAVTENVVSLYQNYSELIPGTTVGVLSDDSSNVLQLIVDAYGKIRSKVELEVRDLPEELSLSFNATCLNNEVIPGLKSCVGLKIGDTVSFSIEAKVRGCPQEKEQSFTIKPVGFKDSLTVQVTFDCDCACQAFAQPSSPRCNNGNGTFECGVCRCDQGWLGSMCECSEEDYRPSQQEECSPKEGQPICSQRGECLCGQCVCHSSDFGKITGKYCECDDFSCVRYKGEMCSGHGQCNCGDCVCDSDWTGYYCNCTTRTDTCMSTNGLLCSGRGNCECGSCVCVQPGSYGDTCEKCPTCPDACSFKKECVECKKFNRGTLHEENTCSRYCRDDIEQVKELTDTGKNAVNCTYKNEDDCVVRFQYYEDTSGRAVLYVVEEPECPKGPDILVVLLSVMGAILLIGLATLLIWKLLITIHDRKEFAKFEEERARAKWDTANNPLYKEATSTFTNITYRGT

[11] = target: T6, Integrin alpha-V/beta-3 (Mus musculus, UniProt O54890+P43406); assay: Antagonist activity at mouse endothelial alphavbeta3 integrin receptor by cell adhesion assay; format: protein-complex assay
T6 sequence (O54890 whole entry): T5 sequence (O54890 whole entry)
T6 sequence (P43406 whole entry): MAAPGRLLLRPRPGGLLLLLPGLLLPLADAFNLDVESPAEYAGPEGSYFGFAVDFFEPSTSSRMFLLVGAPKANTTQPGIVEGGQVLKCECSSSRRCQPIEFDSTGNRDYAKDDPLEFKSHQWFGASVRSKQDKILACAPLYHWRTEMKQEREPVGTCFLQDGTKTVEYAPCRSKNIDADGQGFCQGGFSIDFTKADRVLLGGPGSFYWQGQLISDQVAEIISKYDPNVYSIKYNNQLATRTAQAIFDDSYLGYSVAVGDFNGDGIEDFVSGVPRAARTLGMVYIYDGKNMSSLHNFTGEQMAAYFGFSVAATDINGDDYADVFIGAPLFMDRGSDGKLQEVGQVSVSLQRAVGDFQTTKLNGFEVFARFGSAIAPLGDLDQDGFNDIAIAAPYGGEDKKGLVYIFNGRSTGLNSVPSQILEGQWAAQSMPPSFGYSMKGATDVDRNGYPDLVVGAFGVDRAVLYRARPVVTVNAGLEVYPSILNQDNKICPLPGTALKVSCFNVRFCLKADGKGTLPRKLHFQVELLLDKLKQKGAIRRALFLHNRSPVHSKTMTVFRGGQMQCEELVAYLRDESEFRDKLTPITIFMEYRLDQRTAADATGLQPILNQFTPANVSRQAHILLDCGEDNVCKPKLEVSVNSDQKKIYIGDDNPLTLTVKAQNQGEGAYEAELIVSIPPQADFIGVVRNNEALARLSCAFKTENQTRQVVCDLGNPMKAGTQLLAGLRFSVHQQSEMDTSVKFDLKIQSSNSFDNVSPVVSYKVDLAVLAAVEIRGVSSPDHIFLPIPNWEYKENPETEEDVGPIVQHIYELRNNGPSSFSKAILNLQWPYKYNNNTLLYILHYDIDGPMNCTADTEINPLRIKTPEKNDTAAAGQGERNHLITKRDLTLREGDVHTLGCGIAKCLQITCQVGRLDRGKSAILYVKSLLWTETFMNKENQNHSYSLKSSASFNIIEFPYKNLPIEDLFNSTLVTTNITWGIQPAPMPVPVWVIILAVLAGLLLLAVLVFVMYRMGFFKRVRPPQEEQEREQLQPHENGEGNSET

[12] = target: T3, Integrin alpha-V/beta-3; assay: Antagonist activity at alphavbeta3 integrin receptor in HEK293 cells after 4 hrs using p-nitrophenyl phosphate by colorimetry; format: cell-based
[13] = target: T3, Integrin alpha-V/beta-3; assay: Antagonist activity at alphavbeta3 integrin receptor (unknown origin) by cell-free ELISA; format: protein-complex assay
[14] = target: T2, Integrin alpha-5/beta-1; assay: Antagonist activity at alpha5beta1 integrin receptor (unknown origin) by cell-free ELISA; format: protein-complex assay
[15] = target: T1, Integrin alpha-V/beta-1; assay: Antagonist activity at alphavbeta1 integrin receptor (unknown origin) by cell-based ELISA
[16] = target: T4, Integrin alpha-V/beta-5; assay: Antagonist activity at alphavbeta5 integrin receptor (unknown origin) by cell-free ELISA; format: protein-complex assay

T4 sequence (P06756 31-889 limits assumed): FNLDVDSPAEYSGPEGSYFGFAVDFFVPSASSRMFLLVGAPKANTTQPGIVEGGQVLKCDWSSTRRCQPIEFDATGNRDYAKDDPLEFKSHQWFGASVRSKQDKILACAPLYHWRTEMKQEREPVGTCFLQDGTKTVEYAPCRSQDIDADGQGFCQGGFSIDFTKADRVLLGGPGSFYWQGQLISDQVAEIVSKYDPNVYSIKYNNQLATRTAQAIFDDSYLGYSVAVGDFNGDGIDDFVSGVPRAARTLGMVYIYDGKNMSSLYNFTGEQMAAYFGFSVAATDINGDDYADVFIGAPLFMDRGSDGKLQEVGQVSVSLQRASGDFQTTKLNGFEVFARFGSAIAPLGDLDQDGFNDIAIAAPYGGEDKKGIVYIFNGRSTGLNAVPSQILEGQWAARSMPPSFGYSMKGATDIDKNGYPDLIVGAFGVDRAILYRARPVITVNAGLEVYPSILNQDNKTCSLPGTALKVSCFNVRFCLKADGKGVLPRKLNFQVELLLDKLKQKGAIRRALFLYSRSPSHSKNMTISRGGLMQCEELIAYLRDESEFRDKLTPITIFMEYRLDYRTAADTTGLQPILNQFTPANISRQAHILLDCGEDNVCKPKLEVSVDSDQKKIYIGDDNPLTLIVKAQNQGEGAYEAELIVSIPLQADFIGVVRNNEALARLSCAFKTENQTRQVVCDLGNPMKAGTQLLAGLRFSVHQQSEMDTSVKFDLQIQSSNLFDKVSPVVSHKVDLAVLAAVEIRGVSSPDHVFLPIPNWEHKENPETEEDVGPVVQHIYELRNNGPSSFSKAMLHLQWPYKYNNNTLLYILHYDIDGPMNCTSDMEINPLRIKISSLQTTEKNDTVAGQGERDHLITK
T4 sequence (P06756 891-1048 limits assumed): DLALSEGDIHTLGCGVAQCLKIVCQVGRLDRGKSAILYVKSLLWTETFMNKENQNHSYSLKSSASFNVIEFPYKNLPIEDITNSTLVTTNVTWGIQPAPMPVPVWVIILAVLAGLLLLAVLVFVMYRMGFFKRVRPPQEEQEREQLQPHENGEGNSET
T4 sequence (P18084 24-799 limits assumed): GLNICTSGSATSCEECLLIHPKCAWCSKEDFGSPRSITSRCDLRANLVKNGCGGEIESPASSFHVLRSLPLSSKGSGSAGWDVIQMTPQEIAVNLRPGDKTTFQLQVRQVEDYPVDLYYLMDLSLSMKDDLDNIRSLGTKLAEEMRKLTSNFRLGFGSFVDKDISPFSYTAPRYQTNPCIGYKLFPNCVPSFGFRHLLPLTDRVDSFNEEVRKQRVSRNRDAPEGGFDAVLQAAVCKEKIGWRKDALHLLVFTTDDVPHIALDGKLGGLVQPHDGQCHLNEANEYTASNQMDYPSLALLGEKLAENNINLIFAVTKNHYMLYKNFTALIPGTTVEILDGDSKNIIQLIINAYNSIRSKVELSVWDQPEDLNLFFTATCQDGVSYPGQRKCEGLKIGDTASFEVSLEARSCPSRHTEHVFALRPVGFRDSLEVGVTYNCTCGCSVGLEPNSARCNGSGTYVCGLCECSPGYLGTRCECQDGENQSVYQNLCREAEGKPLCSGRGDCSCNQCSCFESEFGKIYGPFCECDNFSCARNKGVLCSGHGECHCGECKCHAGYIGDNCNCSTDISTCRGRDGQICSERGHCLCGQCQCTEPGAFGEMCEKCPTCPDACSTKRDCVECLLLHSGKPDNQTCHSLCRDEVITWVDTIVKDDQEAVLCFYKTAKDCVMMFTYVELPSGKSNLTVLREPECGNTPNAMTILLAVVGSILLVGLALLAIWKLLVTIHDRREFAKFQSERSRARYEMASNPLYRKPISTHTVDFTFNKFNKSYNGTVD
T2 sequence (P05556 21-798 limits assumed): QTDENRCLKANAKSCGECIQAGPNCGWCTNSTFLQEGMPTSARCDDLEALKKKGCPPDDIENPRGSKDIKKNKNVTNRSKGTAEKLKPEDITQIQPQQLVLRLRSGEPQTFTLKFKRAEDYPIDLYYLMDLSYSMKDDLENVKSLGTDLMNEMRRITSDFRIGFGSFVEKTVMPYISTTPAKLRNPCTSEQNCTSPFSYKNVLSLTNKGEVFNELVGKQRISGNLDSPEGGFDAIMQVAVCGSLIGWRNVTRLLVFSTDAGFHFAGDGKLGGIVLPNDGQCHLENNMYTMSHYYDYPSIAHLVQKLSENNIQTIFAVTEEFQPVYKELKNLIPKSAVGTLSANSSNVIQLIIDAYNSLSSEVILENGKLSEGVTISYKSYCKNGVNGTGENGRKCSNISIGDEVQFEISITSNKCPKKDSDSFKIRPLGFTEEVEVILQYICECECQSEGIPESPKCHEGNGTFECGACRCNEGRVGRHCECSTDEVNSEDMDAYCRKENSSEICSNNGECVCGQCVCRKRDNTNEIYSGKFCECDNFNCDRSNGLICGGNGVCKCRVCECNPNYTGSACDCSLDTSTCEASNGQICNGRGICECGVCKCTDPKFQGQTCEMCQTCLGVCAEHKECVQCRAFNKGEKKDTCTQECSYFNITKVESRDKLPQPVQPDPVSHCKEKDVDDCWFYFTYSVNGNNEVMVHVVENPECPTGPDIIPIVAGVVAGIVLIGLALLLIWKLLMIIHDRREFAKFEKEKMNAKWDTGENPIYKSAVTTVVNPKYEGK
T2 sequence (P08648 42-894 limits assumed): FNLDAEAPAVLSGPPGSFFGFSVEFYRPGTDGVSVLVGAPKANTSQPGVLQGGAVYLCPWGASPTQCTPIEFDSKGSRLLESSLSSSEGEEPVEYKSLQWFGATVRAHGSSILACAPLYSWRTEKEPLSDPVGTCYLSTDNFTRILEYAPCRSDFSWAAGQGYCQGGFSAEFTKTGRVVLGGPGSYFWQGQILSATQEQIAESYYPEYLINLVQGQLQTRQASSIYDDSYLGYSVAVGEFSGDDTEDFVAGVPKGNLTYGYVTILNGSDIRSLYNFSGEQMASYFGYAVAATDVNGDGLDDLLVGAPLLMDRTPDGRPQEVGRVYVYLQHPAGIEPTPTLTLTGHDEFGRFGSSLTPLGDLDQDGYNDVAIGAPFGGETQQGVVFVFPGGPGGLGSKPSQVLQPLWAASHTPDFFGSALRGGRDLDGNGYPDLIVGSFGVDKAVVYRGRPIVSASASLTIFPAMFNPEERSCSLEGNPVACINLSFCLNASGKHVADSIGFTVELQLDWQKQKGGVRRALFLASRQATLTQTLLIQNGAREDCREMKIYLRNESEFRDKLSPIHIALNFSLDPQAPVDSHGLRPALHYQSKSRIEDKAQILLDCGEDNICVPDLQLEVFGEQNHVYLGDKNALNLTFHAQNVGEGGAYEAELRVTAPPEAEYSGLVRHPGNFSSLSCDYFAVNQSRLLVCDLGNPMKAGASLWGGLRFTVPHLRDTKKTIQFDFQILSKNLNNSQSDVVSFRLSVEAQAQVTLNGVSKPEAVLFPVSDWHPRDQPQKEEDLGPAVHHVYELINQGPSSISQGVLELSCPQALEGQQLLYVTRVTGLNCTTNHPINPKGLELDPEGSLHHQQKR
T2 sequence (P08648 895-1049 limits assumed): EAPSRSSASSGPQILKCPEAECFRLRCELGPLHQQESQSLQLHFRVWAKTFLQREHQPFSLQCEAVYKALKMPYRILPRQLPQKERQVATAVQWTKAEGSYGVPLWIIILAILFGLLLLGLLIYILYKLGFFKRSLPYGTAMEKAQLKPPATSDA
T1 sequence (P05556 21-798 limits assumed): as the sequence (P05556 21-798 limits assumed) above
T1 sequence (P06756 31-889 limits assumed): as the sequence (P06756 31-889 limits assumed) above
T1 sequence (P06756 891-1048 limits assumed): as the sequence (P06756 891-1048 limits assumed) above
T3 sequence (P05106 27-788 limits assumed): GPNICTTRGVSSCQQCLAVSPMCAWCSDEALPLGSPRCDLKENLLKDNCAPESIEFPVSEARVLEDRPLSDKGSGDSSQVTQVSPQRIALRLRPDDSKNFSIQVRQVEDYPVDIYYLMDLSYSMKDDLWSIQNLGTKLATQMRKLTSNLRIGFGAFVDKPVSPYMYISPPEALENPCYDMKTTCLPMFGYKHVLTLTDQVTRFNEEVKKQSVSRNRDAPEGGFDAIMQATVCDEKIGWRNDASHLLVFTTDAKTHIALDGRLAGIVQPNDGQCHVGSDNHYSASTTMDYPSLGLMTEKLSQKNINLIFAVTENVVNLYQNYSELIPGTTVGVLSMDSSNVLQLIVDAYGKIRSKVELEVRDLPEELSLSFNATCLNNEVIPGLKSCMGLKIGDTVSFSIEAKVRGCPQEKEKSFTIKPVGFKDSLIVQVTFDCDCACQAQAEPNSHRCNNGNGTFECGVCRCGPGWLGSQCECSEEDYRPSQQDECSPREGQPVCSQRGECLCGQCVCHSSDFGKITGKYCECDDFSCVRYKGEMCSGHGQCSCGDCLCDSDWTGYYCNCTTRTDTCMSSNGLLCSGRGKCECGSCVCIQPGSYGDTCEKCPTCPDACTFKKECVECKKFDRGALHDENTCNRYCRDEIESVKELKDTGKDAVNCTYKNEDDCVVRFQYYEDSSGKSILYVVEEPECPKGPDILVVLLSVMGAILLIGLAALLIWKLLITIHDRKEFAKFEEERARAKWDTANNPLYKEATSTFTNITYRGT
T3 sequence (P06756 31-889 limits assumed): as the sequence (P06756 31-889 limits assumed) above
T3 sequence (P06756 891-1048 limits assumed): as the sequence (P06756 891-1048 limits assumed) above

O=C(O)C[C@H](NC(=O)CNC(=O)c1cncc(N=C2NCC(O)CN2)c1)c1cc(Cl)cc(Br)c1O (stereo partly specified)
IC50 [1]: 1.59 nM
IC50 [2]: 64 nM
IC50 [3]: 380 nM
IC50 [4]: 1.13 nM
IC50 [5]: 0.65 nM
IC50 [6]: 1.5 nM

Cc1cc(C)c(S(=O)(=O)N[C@@H](CNC(=O)c2ccc(-c3cccc(CN=C(N)N)c3)s2)C(=O)O)c(C)c1
IC50 [3]: 0.2 nM
IC50 [7]: 3.5 nM
IC50 [8]: 60 nM
IC50 [9]: 20 nM

Cc1cc(C)c(S(=O)(=O)N[C@@H](CNC(=O)c2ccc3c(cnn3CCCNc3ncc[nH]3)c2)C(=O)O)c(C)c1
IC50 [10]: 21 nM
IC50 [11]: 2.3 nM

O=C(O)C[C@H](NC(=O)CNC(=O)c1cc(O)cc(NC2=NCC(O)CN2)c1)c1cc(Cl)cc(Br)c1O (stereo partly specified)
IC50 [1]: 10.4 nM
IC50 [2]: 316 nM
IC50 [12]: 1.6 nM
IC50 [3]: 257 nM
IC50 [4]: 11.7 nM
IC50 [5]: 1.71 nM
IC50 [6]: 18.1 nM

N=C(N)NCCC[C@H](NC(=O)OCc1ccccc1)[C@H]1CC[C@H](C(=O)NC[C@H](NC(=O)OCc2ccccc2)C(=O)O)O1
IC50 [13]: 52 nM
IC50 [3]: 67 nM

C=Cc1cnc(NC[C@@H]2C[C@]3(CC(C(=O)NC[C@H](NS(=O)(=O)c4c(C)cc(C)cc4C)C(=O)O)=NO3)CN2C(=O)OCCCC)[nH]1
IC50 [13]: 87 nM
IC50 [14]: 0.39 nM

O=C(NC[C@H](NS(=O)(=O)c1c(Cl)cccc1Cl)C(=O)O)c1ccc2c(cnn2CCCNc2ncc[nH]2)c1
IC50 [10]: 12 nM
IC50 [11]: 8.5 nM

N=C(N)NCCCCC(=O)NCC(=O)NC(CC(=O)O)c1cccnc1 (stereo unspecified)
IC50 [13]: 10 nM
IC50 [3]: 9 nM
IC50 [7]: 120 nM
IC50 [15]: 317 nM
IC50 [8]: 23 nM
IC50 [9]: 70000 nM

O=C(N[C@@H](CNC(=O)c1ccc(CN(Cc2nc3ccccc3[nH]2)C(=O)NC2CCCCC2)cc1)C(=O)O)OCc1ccccc1
IC50 [13]: 3.2 nM
IC50 [14]: 421 nM
IC50 [16]: 1.7 nM

N=C(N)NCCC[C@@H]1NC(=O)CNC(=O)[C@H](CC(=O)O)N[C@H](C(=O)O)C[S+]([O-])CC(=O)N[C@H](Cc2ccc(O)cc2)C1=O (stereo partly specified)
IC50 [3]: 1.5 nM

O=C(O)CC1CC(CNC(=O)CCCNc2ccccn2)=CCc2ccccc21 (stereo unspecified)
IC50 [13]: 2 nM
IC50 [16]: 1 nM

N=C(N)NCc1cccc(-c2ccc(C(=O)NC[C@H](NS(=O)(=O)c3ccccc3)C(=O)O)s2)c1
IC50 [3]: 0.3 nM
IC50 [7]: 0.033 nM

N=C(N)NCCCc1cn(CC(=O)N[C@@H](CC(=O)O)c2ccccc2)nn1
IC50 [13]: 1.35 nM
IC50 [16]: 1.02 nM
